We go through one substance from US20040076659A1, “Additive for livestock feeds” (priority 1994, published 2004).

For one data set, the system named is dairy cows. Description: Tween 80 in total mixed ration, dairy herd trial (Example 4). It counts as in vivo, Holsteins. The source says: One hundred and twenty cows and heifers in a dairy herd of Holsteins were divided into three treatment groups of 40 animals per group. All animals were given ad libitum access to a total mixed ration (TMR) based on grass silage, corn silage, grass hay, barley and canola meal. The treatments imposed were: Treatment 1—TMR without additive (Control). Treatment 2—TMR formulated to contain 0.2% (wt/wt) Tween 80+0.1% enzyme preparation (wt/wt). Treatment 3—TMR formulated to contain 0.2% (wt/wt) Tween 80. The Tween 80 was coated onto silica to form a product containing 50% Tween 80 and 50% silica. The enzyme preparation was obtained from Lucta S. A. (Barcelona, Spain). The preparation had the following activities: β-glucanase 263.0, xylanase 75.1 and amylase 542.6. Activities were expressed as nmol of reducing sugars released per mg of enzyme in 1 min at 0.83 mg/ml enzyme concentration. The trial lasted 13 weeks. Animals received their respective dietary treatments for 12 weeks. Milk production and feed intake were monitored until the 13th week (1 week after animals had been removed from dietary treatments). Feed (TMR) offered to each group was weighed and recorded at each feeding. Each group was fed to provide a weighback of 5%. Samples of the feed offered and refused were taken daily, composited into weekly samples and dried at 55° C. for 72 hr to determine dry matter (DM) content. Daily (AM and PM) milk production by each cow was recorded. Animals were weighed two days in a row immediately after milking on a monthly basis. Milk samples were taken for compositional analyses (fat, protein, and somatic cells) in the week preceding the trial, and then during the trial at 4 week intervals. Samples were taken from both the AM and the PM milkings and analyzed individually.

For data set [1] the following is noted: Griffin et al., 1972; cited from earlier work.
A short description of data set [2]: In vitro true digestibility (IVTD) of orchardgrass hay, Ankom in vitro system, 22 h. The method, then: The carriers were celite (Fisher Scientific Co. New Jersey, USA), diatomaceous earth (Sigma Chemical Co. St. Louis, Mo.) and LuctaCarrier (Lucta, S. A. Barcelona, Spain). Tween 80 was mixed with the carriers such that the resulting mixture contained 50% Tween 80 (wt/wt). The ability of Tween 80 in these mixtures to improve digestive efficiency was evaluated in vitro with orchardgrass hay that had been ground to pass through a 1 mm screen. Treatments included 0 (control), 0.1 and 0.2% liquid Tween 80, 0.1 and 0.2% Tween 80 in diatomaceous earth, 0.1 and 0.2% Tween 80 in celite, and 0.1 and 0.2% Tween 80 in LuctaCarrier. Appropriate quantities of each substrate were mixed with the additives and incubated in the Ankom in vitro system (Ankom Technology Fairport NY) for 22 h.

A further data set relates to wethers. Description: In vivo digestibility trial, timothy hay sprayed with Tween 80. The following applies: sheep; about 0.3% Tween 80 in the ration. The procedure:
Four […] weighing (72.5±15.0 kg) fitted with both rumen and duodenal cannula, were offered chopped medium quality timothy hay ad libitum. The hay was either sprayed with 500 ml water or 50 ml of […] dissolved in 500 ml of water. The feed was offered in two equal portions, at 08:30 and 20:30 hr. Water was available ad libitum. The experiment was designed as a 2×2 latin square with two 14-day adaptation, two 7-day collection periods. Estimates of the rates of passage of the two treated hays were made using chromium mordanted fibre (Cr) for the particulate phase and cobalt-ethylene diaminetetracetic acid (Co-EDTA) for the liquid phase. The method of Uden et al., “Investigation of chromium, cerium and cobalt as markers in digesta: Rate of Passage studies,” J. Sci. of Food and Agriculture 31:625-632 (1980), was used in the preparation of both markers. The sheep were adapted to the feed in individual pens, and then moved into digestibility cages for total collection and marker infusion. During the collection period, records of feed intake, faecal and urine output were maintained. 250 g subsamples of the faeces were collected daily, subsampled for DM determination, while the rest was dried under a drought oven. Urine was collected under 1N sulphuric acid. On the last day of the collection period, each sheep was given 50 g of Cr-mordanted fibre 1 hr prior to the evening feeding. In addition, 250 ml of Co-EDTA (0.1 g/ml) was infused intraruminally and the animals were then fed. Rumen digesta and duodenal sampling commenced 4 hr after dosing and continued at the same interval for 96 hr. Two samples of rumen fluid were collected: The first rumen fluid samples (30 ml) were preserved for microbial protein estimations by adding 7.5 ml of 0.9% NaCl in 37% formaldehyde solution. The samples were then stored at -20° C. after the preparation of a bacterial pellet by centrifugation at 27,000 g max for 15 min. A portion of the second rumen fluid and faecal samples was dried at 80° C. and ground in a coffee grinder (Braun, Inc. MA) for DM and Cr determination (Uden et al., 1980). Cr concentration in the samples was determined in duplicate by atomic absorption spectrophotometer (Perkin Elmer 560) using Cr standards (Fisher Scientific Co. NJ). The rest of the second rumen fluid sample was centrifuged at 10,000 g max for 10 min and the supernatants analyzed directly for cobalt using 0.1N HCL as the blank. Standards were prepared using cobalt chloride (Fisher Scientific Co. NJ). Marker concentrations were expressed per gram of dry sample. Other analyses included: acid and neutral detergent fibre (Goering and Van Soest, “Forage fiber analysis,” Agric. Handbook No. 379, p. 12 (1970)), total N (Parkinson and Allen, “A wet oxidation procedure suitable for the determination of nitrogen and mineral nutrients in biological materials,” Comm. Soil Sci. Plant Anal. 6:1 (1975)) for RNA concentrations of the rumen bacterial pellets and duodenal samples.

As for “polyoxyethylene sorbitan monoleate [Tween 80]”, the “More milk per cow than control over the 12-week period” value in the data set on dairy cows (0.2% Tween 80 (with or without 0.1% enzyme)) was determined as 64 kg. The “Average increase in milk production over control” value in the data set on dairy cows (all cows lactating at least 3 weeks before start, 0.2% Tween 80 (with or without 0.1% enzyme)) worked out at 0.76 kg/cow/day. Also, the “Milk produced (kg) per kg of feed consumed” value in the data set on dairy cows (feed conversion efficiency) is given as 1.48 kg per kg of feed. Also, the “More milk than control” value with dairy cows (fresh cows, after the 4th week of lactation) is listed as “approximately 4 kg more milk/cow/day”. For the same substance, in the data set on dairy cows (mature cow, 0.2% Tween 80), the “More milk than a cow on Tween 80 plus enzyme over 12 weeks” value was 74 kg and the “More milk than a cow on the control diet over 12 weeks” value came out at 110 kg. Further, the “Average increase in milk production” value with dairy cows (mature cows, 0.2% Tween 80) was 1.31 kg/day. In data set [1], the “HLB (hydrophile-lipophile balance)” value was 15. For the same substance, in data set [2] (0.1% Tween 80), the “In vitro true digestibility (IVTD)” value is 54.20%. Further, the “In vitro true digestibility (IVTD)” value in data set [2] (0.2% Tween 80) was 54.93%. In the data set with wethers, the “Digestibility, Acid detergent fibre” value is 52.68b (0.4) %; the “Digestibility, Crude protein” value is on record as 61.25b (0.5) %; the “Digestibility, Dry matter” value is given as 64.70b (0.8) %; the “Digestibility, Neutral detergent fibre” value is 60.63b (0.7) %. Also, in the data set with wethers, the “Increase in digestibility compared to control” value is 18%, the “Increase in intake compared to control” value was found to be 5% and the Intake is on record as 2.06b (0.1) % of the body weight.
